Test results taken from patent publication US20020102230A1, “Method for inactivating pathogens” (priority 2000, published 2002).
pIC50: −log10 of the molar value. Converted amounts (≈) assume the structure as drawn.

Key:
HIV-1 (RF) = type: cell-based; details: 6 days, MTS, control, row printed in μM, read-out: Ic50, activity against HIV-1 in CEM-SS cells
Description: (§1) CEM-SS cells (obtained from the AIDS Research and Reference Reagent Repository, Bethesda, Md.) are passaged in T-75 flasks in tissue culture media (RP 1640 medium (no phenol red) with 10% Fetal Bovine Serum (heat inactivated), 2 mM L-glutamine, 100 U/mL penicillin, 100 μg/mL streptomycin, and 10 μg/mL gentamycin). On the day preceding the assay, the cells are split 1:2. On the day of assay the cells are collected by centrifugation, washed twice with tissue culture medium and resuspended in fresh tissue culture medium. Total cell and viability counting is performed using a hemacytometer. Cell viability prior to the assay is determined by Trypan Blue dye exclusion and must exceed 95%. A pretitered aliquot of HIV-1 RF (AIDS Research and Reference Reagent Repository, Bethesda, Md.), CEM-SS cells and compound are placed into microtiter plates. Each plate contains cell control wells (cells only), virus control wells (cell plus virus), drug toxicity control wells (cells plus drugs only), drug calorimetric control wells (drugs only) as well as experimental wells (drug plus cells plus virus) . Cultures are incubated for 6 days at 37° C., 5% CO2 and antiviral activity and compound toxicity determined by MTS staining.

IIIB strain of HIV [1] = details: virus adsorption interval of 1 h; cited from earlier work
CEM-SS cells = test system: CEM-SS cells
Description: as §1

[2] = Drug cytotoxicity in Vero cells (MTS), HSV-1 assay; type: cell-based; details: African green monkey
Source text: (§2) A virus induced cytopathic effects (CPE) inhibition assay procedure using Promega's cell titer aqueous one solution (MTS, metabolic dye similar to XTT) is employed to evaluate compounds for antiviral activity against herpes simplex virus type 1 (HSV-1) strain HF in Vero cells. Vero cells are pregrown in 96 well tissue culture plates using Dulbecco's modified eagle's media (DMEM) supplemented with 10% heat inactivated fetal bovine serum (FBS), L-glutamine, penicillin and streptomycin. Antiviral assays are designed to test six half log dilution of each compound in triplicate against the challenge virus in microtiter plate wells containing host cell monolayers. To each of the replicate cell cultures is added 50 uL of the test drug solution and 50 uL of virus suspension. Cell control containing medium alone, virus infected controls containing medium and virus, drug cytotoxicity controls containing medium and each drug concentration, reagent controls containing culture medium only (no cells), and drug calorimetric controls containing drug and medium (no cells) are run simultaneously with the test samples. The plates are incubated at 37° C. in a humidified atmosphere containing 5% CO2 until maximum CPE is observed in the untreated virus control cultures (day 5). CPE inhibition is determined by the dye (MTS) uptake procedure. […]

[3] = test system: herpes simplex virus type 1 (HSV-1) strain HF; assay: Virus induced cytopathic effects (CPE) inhibition assay in Vero cells (MTS); type: cell-based; details: Human alphaherpesvirus 1, Vero, read-out: Ic50 against HSV-1 virus
Source text: as §2

IIIB strain of HIV [4] = assay: Virus attachment assay (HeLa CD4 LTR β-gal cells); type: cell-based; details: Human immunodeficiency virus 1, 1 h adsorption
Description: (§3) This assay is designed to detect compounds that interact with the cell and block virus attachment, and/or compounds that interact with the forming attachment/fusion complex. The attachment assay is performed with HeLa CD4 LTR β-gal cells. HeLa CD4 LTR β-gal cells are routinely cultured with the required selection antibiotics. Twenty-four hours prior to initiation of the assay the cells are trypsinized, counted, and 1×10^4 cells placed in a 0.2 cm well in media without selection antibiotics. At 24 h media is removed and compound in media placed on the cells and incubated for 15 min at 37° C. […] At the end of the incubation, the wells are washed 3 times with media and the culture continued for 40 to 48 h. At termination of the assay, media is removed and β-galactosidase enzyme expression determined by chemiluminescence per manufacturer instructions (Tropix Gal-screen™, Bedford Mass.) by a single step chemiluminescent method using a single solution to lyse the cells and detect β-galactosidase enzyme activity. Compound toxicity is monitored on a sister plate by XTT dye reduction. All determinations are performed in triplicate with serial ½ Log10 dilution of the test materials.

HeLa CD4 LTR β-gal cells [5] = assay: Compound toxicity (XTT, sister plate) in the virus attachment assay; type: cell-based
Description: as §3

HeLa CD4 LTR β-gal cells [6] = assay: Compound toxicity (XTT, sister plate) in the fusion assay; type: cell-based
Description: The fusion assay assesses the ability of compounds to block cell-to-cell fusion mediated by HIV-1 Env and CD4 expressed on separate cells. This assay is sensitive to inhibitors of both the gp120/CD4 interaction and inhibitors of the X4 coreceptor. First, 5×10^3 HeLa CD4 LTR β-gal cells are placed in microtiter wells and incubated overnight. The following day the media is removed and the HeLa CD4 LTR β-gal cells are incubated for 1 h at 37° C. in fresh media with test compound. Following the incubation 5×10^3 HL2/3 cells are added and the incubation continued for 40 to 48 h. At 40 to 48 h β-galactosidase enzyme expression is detected by chemiluminescence (Tropix Gal-screen™, Tropix, Bedford, Mass.). Compound toxicity is monitored on a sister plate using XTT dye reduction. All determinations are performed in triplicate with serial ½ Log10 dilution of the test materials.

[7] = test system: vaginal/cervical epithelial and other cells; details: concentrations as low as; cited from earlier work

## Cc1cn([C@H]2C[C@H](N=[N+]=[N-])[C@@H](CO)O2)c(=O)[nH]c1=O [AZT]
HIV-1 (RF)
  IC50: 0.005 µM
IIIB strain of HIV [1]
  Activity in the virus attachment assay (in words): not active
CEM-SS cells
  CC50: > 1000 nM

## Nc1nc2c(ncn2COCCO)c(=O)[nH]1 [Acyclovir]
[2]
  CC50 at 5 day: > 10 µg/mL
[3]
  pIC50: 5.57

## COc1cc(-c2ccc(/N=N/c3ccc4c(S(=O)(=O)O)cc(S(=O)(=O)O)c(N)c4c3O)c(OC)c2)ccc1/N=N/c1ccc2c(S(=O)(=O)O)cc(S(=O)(=O)O)c(N)c2c1O [Chicago Sky Blue]
IIIB strain of HIV [4]
  IC50: 0.32 µg/mL (≈ 0.354 µM)
HeLa CD4 LTR β-gal cells [5]
  Attachment Assay TC50: >10 µg/mL
HeLa CD4 LTR β-gal cells [6]
  Fusion Assay TC50: >10 µg/mL

## Nonoxynol-9
[7]
  Concentration that can injure vaginal/cervical epithelial and other cells: about 0.0005%
